Earlier results as cited in US6756057B2, “Amoxicillin and potassium clavulanate dosage form” (Beecham Pharmaceuticals (pte) Limited, priority 2000, dated 2004).

Conditions: in vivo

## CC1(C)S[C@@H]2[C@H](NC(=O)[C@H](N)c3ccc(O)cc3)C(=O)N2[C@H]1C(=O)O [amoxicillin]
  elimination half-life: about 1.3 hours
